The source of these data is US20180002288A1, “USE OF PICOLINAMIDES AS FUNGICIDES” (DOW AGROSCIENCES LLC, priority 2014, published 2018).

Structures are written as SMILES. Read-outs that look alike come from different tables or passages of the source.

What all share (format): in vivo
Assay [1] has as its system Venturia inaequalis. Put plainly: Apple Scab fungicidal activity (VENTIN). The conditions noted are these: 24 h, high volume, 1 Day Protectant, read-out: VENTIN % Control rating. Here is the method: All fungicides were evaluated using the aforementioned method for their activity vs. all target diseases, unless stated otherwise. Wheat leaf blotch and brown rust activity were also evaluated using track spray applications, in which case the fungicides were formulated as EC formulations, containing 0.1% Trycol 5941 in the spray solutions. Wheat plants (variety Yuma) were grown from seed in a greenhouse in 50% mineral soil/50% soil-less Metro mix until the first leaf was fully emerged, with 7-10 seedlings per pot. These plants were inoculated with an aqueous spore suspension of Zymoseptoria tritici either prior to or after fungicide treatments. After inoculation the plants were kept in 100% relative humidity (one day in a dark dew chamber followed by two to three days in a lighted dew chamber at 20° C.) to permit spores to germinate and infect the leaf. The plants were then transferred to a greenhouse set at 20° C. for disease to develop. When disease symptoms were fully expressed on the 1st leaves of untreated plants, infection levels were assessed on a scale of 0 to 100 percent disease severity. Percent disease control was calculated using the ratio of disease severity on treated plants relative to untreated plants. […] Seedlings with two expanding young leaves at the top (older leaves at bottom of the plants were trimmed) were used in the test. Plants were inoculated with a spore suspension of Venturia inaequalis 24 hr after fungicide treatment and kept in a 22° C. dew chamber with 100% relative humidity for 48 hr, and then moved to a greenhouse set at 20° C. for disease to develop. Fungicide formulation, application and disease assessment on the sprayed leaves followed the procedures as described in the Example A.

Assay [2] relates to Colletotrichum lagenarium. The assay is described as follows: Cucumber Anthracnose fungicidal activity (COLLLA). The conditions noted are these: Colletotrichum orbiculare, 24 h, high volume, 1 Day Protectant, read-out: COLLLA % Control rating. Here is the method:
All fungicides were evaluated using the aforementioned method for their activity vs. all target diseases, unless stated otherwise. Wheat leaf blotch and brown rust activity were also evaluated using track spray applications, in which case the fungicides were formulated as EC formulations, containing 0.1% Trycol 5941 in the spray solutions. Wheat plants (variety Yuma) were grown from seed in a greenhouse in 50% mineral soil/50% soil-less Metro mix until the first leaf was fully emerged, with 7-10 seedlings per pot. These plants were inoculated with an aqueous spore suspension of Zymoseptoria tritici either prior to or after fungicide treatments. After inoculation the plants were kept in 100% relative humidity (one day in a dark dew chamber followed by two to three days in a lighted dew chamber at 20° C.) to permit spores to germinate and infect the leaf. The plants were then transferred to a greenhouse set at 20° C. for disease to develop. When disease symptoms were fully expressed on the 1st leaves of untreated plants, infection levels were assessed on a scale of 0 to 100 percent disease severity. Percent disease control was calculated using the ratio of disease severity on treated plants relative to untreated plants. Cucumber seedlings (variety Bush Pickle) were propagated in soil-less Metro mix, with each pot having one plant, and used in the test when 12 to 14 days old. Test plants were inoculated with an aqueous spore suspension of Colletotrichum lagenarium 24 hr after fungicide treatments. After inoculation the plants were kept in a dew room at 22° C. with 100% relative humidity for 48 hr to permit spores to germinate and infect the leaf. The plants were then transferred to a growth room set at 22° C. for disease to develop. Fungicide formulation, application and disease assessment on the sprayed leaves followed the procedures as described in the Example A.

Assay [3] deals with Zymoseptoria tritici. The assay is described as follows: Leaf Blotch of Wheat fungicidal activity (SEPTTR). The conditions noted are these: Low Volume Cereal Activity at 121.5 g/Ha.
Assay [4] concerns Pyricularia oryzae. The assay is described as follows: whole plant or invertebrate. The conditions noted are these: 24 h, read-out: PYRIOR % Control rating.
For assay [5], the system named is Rhyncosporium secalis. The assay is described as follows: Barley Scald fungicidal activity (RHYNSE). The conditions noted are these: Hordeum vulgare, 24 h, high volume, 1 Day Protectant, read-out: RHYNSE % Control rating. Here is the method: All fungicides were evaluated using the aforementioned method for their activity vs. all target diseases, unless stated otherwise. Wheat leaf blotch and brown rust activity were also evaluated using track spray applications, in which case the fungicides were formulated as EC formulations, containing 0.1% Trycol 5941 in the spray solutions. Wheat plants (variety Yuma) were grown from seed in a greenhouse in 50% mineral soil/50% soil-less Metro mix until the first leaf was fully emerged, with 7-10 seedlings per pot. These plants were inoculated with an aqueous spore suspension of Zymoseptoria tritici either prior to or after fungicide treatments. After inoculation the plants were kept in 100% relative humidity (one day in a dark dew chamber followed by two to three days in a lighted dew chamber at 20° C.) to permit spores to germinate and infect the leaf. The plants were then transferred to a greenhouse set at 20° C. for disease to develop. When disease symptoms were fully expressed on the 1st leaves of untreated plants, infection levels were assessed on a scale of 0 to 100 percent disease severity. Percent disease control was calculated using the ratio of disease severity on treated plants relative to untreated plants. Barley seedlings (variety Harrington) were propagated in soil-less Metro mix, with each pot having 8 to 12 plants, and used in the test when first leaf was fully emerged. Test plants were inoculated by an aqueous spore suspension of Rhyncosporium secalis 24 hr after fungicide treatments. After inoculation the plants were kept in a dew room at 22° C. with 100% relative humidity for 48 hr. The plants were then transferred to a greenhouse set at 20° C. for disease to develop. Fungicide formulation, application and disease assessment on the sprayed leaves followed the procedures as described in the Example A.

Regarding `COc1ccnc(C(=O)N[C@@H](C)C(=O)O[C@@H](C)C(Oc2ccc(F)cc2)c2ccc(F)cc2)c1OCOC(C)=O` (stereo partly drawn) [Example 238], the pest or weed control at 100 ppm in assay [1] was more than 80%; in assay [2] it was less than 80%; in assay [4], more than 80%; in assay [5], more than 80%. In addition, the pest or weed control at 121.5 g/ha in assay [3] (24 h, 1 Day Protectant, read-out: SEPTTR 1DP (Wheat Leaf Blotch, 1 Day Protectant)) was more than 80%; in assay [3] (72 h, 3 Day Curative, read-out: SEPTTR 3DC (Wheat Leaf Blotch, 3 Day Curative)), more than 80%.
